The term IC50 denotes the concentration at which inhibition is half-maximal. Lower therefore signals greater potency.

Structures are written as SMILES. A value given as a limit tells only on which side of the number the result lay.

This is an account of results in ChEMBL document CHEMBL1149992 (Bioorg Med Chem Lett, 1997).

Test [1] deals with T1, Acetylcholinesterase (Homo sapiens, UniProt P22303).
Description: Compound was tested in vitro for inhibitory activity against Acetylcholinesterase
For test [2], the target named is T1, Acetylcholinesterase. As to the kind of experiment: In vitro selectivity towards Acetylcholinesterase relative to compound 1.
Another test concerns the target Butyrylcholinesterase (Rattus norvegicus, UniProt Q9JKC1).
Test [3] concerns the target T2, Acetylcholinesterase (Rattus norvegicus, UniProt P37136).
T2 sequence (P37136 whole entry): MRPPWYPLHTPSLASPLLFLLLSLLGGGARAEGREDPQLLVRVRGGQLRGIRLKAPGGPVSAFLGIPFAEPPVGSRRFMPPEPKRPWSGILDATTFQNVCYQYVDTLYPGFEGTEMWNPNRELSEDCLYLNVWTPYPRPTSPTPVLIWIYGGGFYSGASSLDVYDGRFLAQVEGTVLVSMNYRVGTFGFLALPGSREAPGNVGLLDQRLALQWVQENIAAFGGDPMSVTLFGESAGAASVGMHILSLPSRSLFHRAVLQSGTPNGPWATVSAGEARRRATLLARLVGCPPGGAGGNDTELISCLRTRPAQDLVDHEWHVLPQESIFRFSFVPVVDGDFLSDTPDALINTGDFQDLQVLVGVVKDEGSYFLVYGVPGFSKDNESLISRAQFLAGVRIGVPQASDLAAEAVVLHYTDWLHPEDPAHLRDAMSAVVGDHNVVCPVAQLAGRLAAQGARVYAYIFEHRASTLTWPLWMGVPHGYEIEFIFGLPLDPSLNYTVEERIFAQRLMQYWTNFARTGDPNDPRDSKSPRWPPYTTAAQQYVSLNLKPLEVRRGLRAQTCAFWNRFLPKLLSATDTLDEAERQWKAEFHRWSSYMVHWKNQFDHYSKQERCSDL
Description: Compound was tested in vitro for inhibitory activity against Acetylcholinesterase in rat cortex

T1 sequence (P22303 whole entry): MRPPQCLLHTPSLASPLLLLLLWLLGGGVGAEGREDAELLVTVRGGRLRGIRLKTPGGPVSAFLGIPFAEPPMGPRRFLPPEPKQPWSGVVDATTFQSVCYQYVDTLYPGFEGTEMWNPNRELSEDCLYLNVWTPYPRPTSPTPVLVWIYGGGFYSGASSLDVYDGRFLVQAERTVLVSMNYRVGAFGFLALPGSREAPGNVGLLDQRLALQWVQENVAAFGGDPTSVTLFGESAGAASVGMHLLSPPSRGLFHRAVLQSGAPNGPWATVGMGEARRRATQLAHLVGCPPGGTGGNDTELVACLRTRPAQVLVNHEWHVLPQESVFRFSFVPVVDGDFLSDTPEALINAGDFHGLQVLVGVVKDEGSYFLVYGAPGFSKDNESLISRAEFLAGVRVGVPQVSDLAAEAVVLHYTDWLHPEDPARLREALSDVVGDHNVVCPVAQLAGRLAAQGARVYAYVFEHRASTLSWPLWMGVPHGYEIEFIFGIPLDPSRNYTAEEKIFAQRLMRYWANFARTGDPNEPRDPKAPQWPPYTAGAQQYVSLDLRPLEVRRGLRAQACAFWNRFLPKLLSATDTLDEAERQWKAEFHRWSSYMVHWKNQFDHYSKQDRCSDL
Sequence of Butyrylcholinesterase (Q9JKC1 whole entry): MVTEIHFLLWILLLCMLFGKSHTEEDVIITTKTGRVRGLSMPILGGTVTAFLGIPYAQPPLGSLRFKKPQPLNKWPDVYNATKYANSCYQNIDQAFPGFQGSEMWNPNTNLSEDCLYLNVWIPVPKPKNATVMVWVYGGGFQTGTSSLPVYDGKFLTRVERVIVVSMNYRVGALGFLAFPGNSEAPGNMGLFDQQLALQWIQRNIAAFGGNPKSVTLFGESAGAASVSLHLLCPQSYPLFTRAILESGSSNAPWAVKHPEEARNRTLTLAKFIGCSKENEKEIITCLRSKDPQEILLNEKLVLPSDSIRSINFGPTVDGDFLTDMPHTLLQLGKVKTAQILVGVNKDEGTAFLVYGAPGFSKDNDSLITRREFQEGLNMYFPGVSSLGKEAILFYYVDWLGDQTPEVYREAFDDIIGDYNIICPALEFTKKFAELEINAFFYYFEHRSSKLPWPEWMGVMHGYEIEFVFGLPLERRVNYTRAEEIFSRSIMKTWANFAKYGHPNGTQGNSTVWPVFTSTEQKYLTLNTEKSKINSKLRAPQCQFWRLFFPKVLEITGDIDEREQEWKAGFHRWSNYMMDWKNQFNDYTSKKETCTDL
Description for Butyrylcholinesterase: Compound was tested in vitro for inhibitory activity against Butyrylcholinesterase

Regarding `Nc1c2c(nc3ccccc13)-c1ccccc1CO2`, the IC50 is 245 µM at Acetylcholinesterase [1], 6.58 µM against Butyrylcholinesterase and more than 100 µM against Acetylcholinesterase [3]. At Acetylcholinesterase [2], the Relative Selectivity stood at 0.13.

Turning to `Nc1c2c(nc3ccccc13)-c1ccccc1CS2`, the IC50 was 18.6 µM against Acetylcholinesterase [1], 4.9 µM on Butyrylcholinesterase and more than 100 µM on Acetylcholinesterase [3]. In addition, the Relative Selectivity on Acetylcholinesterase [2] is 1.22.

`Nc1c2c(nc3ccccc13)-c1ccccc1C2`: the IC50 turned out to be 0.676 µM against Acetylcholinesterase [1], 4.67 µM against Butyrylcholinesterase and 0.48 µM against Acetylcholinesterase [3]. At Acetylcholinesterase [2], this compound yielded a Relative Selectivity of 32.1.

As to `Nc1c2c(nc3ccccc13)-c1ccccc1CC2`, the IC50 against Acetylcholinesterase [1] was determined as 2.98 µM; against Butyrylcholinesterase, 1.18 µM; against Acetylcholinesterase [3] it was 4 µM. The Relative Selectivity at Acetylcholinesterase [2] was found to be 1.83.

With `Nc1cc(-c2ccccc2)nc2ccccc12`, the IC50 on Acetylcholinesterase [1] was 11.5 µM; on Butyrylcholinesterase it was 12 µM; at Acetylcholinesterase [3] it was more than 100 µM. Further, the Relative Selectivity at Acetylcholinesterase [2] turned out to be 4.86.
